# Patent US6187906A, “Methods to improve neural outcome” (Aukland Uniservices Limited, priority 1998, dated 2001)
# What was measured:
# [1] = test system: hypoxic-ischemic injury to one cerebral hemisphere; experiment: Hypoxic-ischemic injury in adult rats, IGF-1 vs MK801 (Experiment 1); type: in vivo, Wistar rats; details: 50 μg IGF-1 intraventricular and/or 1 mg MK801, 2 hours after hypoxia; histology at 120 hours; controls 65%
# Method: Adult Wistar rats (68 280-320 g) were prepared under 3% halothane/O2 anaesthesia. The right side carotid artery was ligated. A guide cannula was placed on the dura 8.2 mm anterior from bregma and 1.4 mm from midline on the right. The rats were allowed to recover from anaesthesia for 1 hour and were then placed in an incubator with humidity 85±5% and temperature 34±0.5° C. for 1 hour before hypoxia. Oxygen concentration was reduced and maintained at 6±0.2 O2 % hypoxia for 10 minutes. […] The intraventricular injections of 50 μg IGF-1 or vehicle alone were made into the right lateral ventricle at 1 μl/minute under 1.5%-2% halothane anaesthetic. Rats in each treatment group were infused simultaneously. The rats had free access to food during experiment and were euthanized at 120 hours after hypoxia with overdose of sodium pentobarbitol. Briefly, the brain was perfused in-situ with FAM (Formaldehyde, Acetic Acid, Methanol 1:1:8) then paraffin embedded. The sections were stained with Thionin and Acid Fuchsin. The presence of cortical infarction, defined as a region of tissue death or parenchymal pan-necrosis due to death of glia as well as neurons, was determined via light microscopy by an assessor who was blinded to the experimental groupings.
# ischemic brain injury = experiment: Ischemic brain injury in fetal sheep, postischemic seizures and neuronal loss (Experiment 2); type: in vivo
# Excerpt: The objective of this study was to compare the effects of treatment either with IGF-1 (see FIG. 2) and previously published work with the NMDA antagonist […] after an ischemic brain injury on postischemic seizures and neuronal losses in fetal sheep. (Tan et al Ann Neurol 32:677-682 (1992)).
# The methods were those of an earlier study (Tan et al Ann Neurol 32:677-682 (1992)). Briefly, late gestation fetal sheep were chronically instrumented to record EEG, nuchal activity and blood pressure, and were then returned to the uterus. Cortical EEG activity nuchal activity and blood pressure were recorded throughout he experiment and the fetal brain subjected to 30 minutes of ischemia. Two hours later they were treated by an infusion of either 1 μg IGF-1 (n=6) or vehicle (artificial CSF) (n=6) into the lateral ventricle. Five days later the brains were fixed and assessed for neuronal loss as described previously (Tan et al Ann Neurol 32:677-682 (1992)).
# In all cases the vehicle is the left-hand column and the effects of 1 μg of IGF-1 is on the right.
Compound,incidence of cortical infarction [1],"neuronal rescue (neuronal loss scores) (ischemic brain injury; 1 μg IGF-1 into lateral ventricle 2 hours after 30 minutes of ischemia, assessed five days later)",postischemic seizure activity (ischemic brain injury; 1 μg IGF-1 into lateral ventricle 2 hours after ischemia)
insulin-like growth factor 1 [IGF-1],33%,rescued neurons,did not suppress
"C[C@]12N[C@H](Cc3ccccc31)c1ccccc12 [MK801, reference compound]",50%,,
